In PMC12704579, “New Anticancer 4‐Aryldihydropyrimidinone‐5‐Carboxylates Targeting Hsp90” (Chemical Biology & Drug Design, 2025):

Columns and labels:
HCC1954 cells = system: HCC1954 cells; set-up: method as in Bordoni [2016]; details: invasive breast cancer cell line HCC1954; ref Bordoni [2016]; cited from earlier work
Bcl3-p50 = system: Bcl3-p50; set-up: method as in Soukupová [2013]; details: ref Soukupová [2013]; cited from earlier work
MCF-7 cells = assay: Colony forming assay, MCF-7; format: cell-based, human; details: for IC50: Homo sapiens, MCF7, 168 h, 7 days; for % Clonogenicity (MCF-7, 10 μM): percentage of survival colonies, 7-day incubation, standardised to DMSO control
Protocol: (§1) Human Embryonic Kidney cells (HEK‐293) and human breast cancer cells (MCF‐7, MDA‐MB‐231 and HCC1954) were cultured in complete growth media: […] 1X (Gibco); 10% v/v Fetal Bovine Serum (FBS, Sigma Dorset UK) and L‐glutamine (2 mM, Invitrogen). SW‐480‐WT cells were maintained in selective media made up of Dulbecco's Modified Eagle Medium (Gibco), enriched with […] of Geneticin Selective Antibiotic (G418 Sulfate; Gibco, Thermo Fisher). Cells were incubated at a 5% CO2 atmosphere at 37°C.
Cells were seeded in a 12‐well plate at 400 cells per well. One hour after the seeding of the cells, compounds (1 mM, 100 μM, 10 μM, 1 μM, 100 nM, 10 nM) or vehicle were added into the wells in triplicate (DMSO vehicle 0.1% and 1%). After 7 days, colonies were stained with 350 μL of crystal violet solution, incubated for 30 min at room temperature, then wells were washed in water and dried. At least the best 3 independent experiments out of 5 independent repeats were used to perform the statistical analysis of the results. Colonies were counted by GelCount Colony Counter (Oxford Optronix Ltd.) using the GelCount 1.1.8.0 software. Assay end points were normalised to 0% (DMSO only) and fitted to a semi‐log plot using at least n = 3 technical replicates (n = 6 for DMSO control and N = 3 independent replicates). The curve fit was performed using GraphPad Prism.
(§2) In view of previous reports on Hsp90 inhibitors and their effects on cancer cell viability (Eachkoti et al. [2014]) and clonogenicity (Kinzel et al. [2016]), new compounds were tested for inhibition of cell viability within both non‐tumourigenic (HEK‐293) and breast cancer cell lines (MDA‐MB‐231) at a fixed concentration of 10 μM. The well‐established CellTiter‐Blue endpoint assay was used to assess cell viability. New compounds were also assessed in a colony forming assay (MCF‐7 breast cancer cell line), used as an efficacy screening to provide an indication of the inhibition of clonogenicity for these small molecules (Table 1).

[1] = target: T1, Recombinant human Hsp90 alpha protein (Homo sapiens, UniProt P07900); assay: Transcreener ADP FP Hsp90 ATPase assay; format: biochemical; details: Recombinant human HSP90, 100 μM ATP; read-out: ATPase assay on rh-Hsp90 IC50
T1 construct: human full‐length protein, expressed in Escherichia coli; His tag (C); purchased Abcam ab80369; host or cells: Escherichia coli
Protocol: Transcreener ADP (cat. no. 3004‐1K) and ADP2 (cat. no. 3010‐1K) FP assay kits were obtained from Bellbrook Laboratories. Recombinant human Hsp90 alpha protein (active), human full‐length protein, expressed in Escherichia coli with > 90% purity and C‐terminus His tag, was purchased from Abcam (ab80369). All FP assays were carried out in black, 384‐well, low‐volume, polystyrene nonbinding microplates from Corning Life Sciences. All basic buffer components were obtained from Sigma‐Aldrich Chemical Co. 17‐AAG (Figure 1) was obtained from Abcam. Using the Transcreener ADP FP kit, the conditions for the recombinant human Hsp90 ATPase reaction were 50 mM HEPES (pH 7.4), 20 mM KCl, 2 mM EGTA, 4 mM MgCl2, and 0.01% Brij‐35 in a 10‐μL total assay volume. The final assay concentration of ATP was 100 μM for Hsp90. Due to the relatively low level of ATPase activity compared with other enzymes, the plate was incubated at 37°C and run over 1, 2 and 3 h time points. The reaction was stopped, and the ADP was detected by adding 10 μL of 50 mM HEPES (pH 7.4), 400 mM NaCl, 20 mM EDTA, 0.01% Brij35, 75 μg/mL anti‐ADP monoclonal antibody, and 4 nM ADP far red tracer. The plate was sealed, centrifuged at 600 g for 1 min, and left at room temperature for 1 h. FP readings for the Hsp90 ATPase Transcreener assays were performed on a Clariostar plate reader ([…]). A blank mP signal composed of protein, antibody, labelled ADP, but no ATP substrate gave similar mP values to those seen in the no‐protein controls. The upper limit of the assay window was defined by a no‐protein control, and the mP in the presence of heat shock protein was subtracted from this control to generate a change in polarisation (ΔmP), which was plotted on the activity graphs. Therefore, the data take into account the spontaneous hydrolysis of ATP. Each value is the mean of triplicate determinations with standard deviations (SD) shown. IC50 values were calculated using GraphPad Prism software with the nonlinear regression curve fitted to the log (inhibitor concentration) against the raw mP values on the linear portion of the standard curve.

MDA-MB-231 cells = assay: CellTiter-Blue cell viability assay, MDA-MB-231 (24 h); format: cell-based, human; details: Homo sapiens, MDA-MB-231, 24 h; for GI50: 24 h incubation time; for viability at 10 µM: CellTiter-Blue, 24 h incubation, 10 μM test compound, standardised to DMSO control
Protocol: as §1
(§3) Cells were cultured in 96‐well plates in 90 μL at a seeding density of 1 × 10^6 cells per well. Compound samples were prepared at different concentrations (1 mM, 100 μM, 10 μM, 1 μM, 100 nM, 10 nM) and 10 μL of each concentration was seeded in each well. Two different negative controls were used: DMSO 0.01% and 0.001%. Paclitaxel (30% w/v) was used as a positive control. Cells were treated for 24 h after which 20 μL of CellTitre‐Blue reagent (Promega, Southampton, UK) was added and incubated for 2 h at 37°C in 5% CO2. Fluorescence was measured at 560/590 nm on a Fluorostar Optima plate reader (BMG Labtech, Bucks, UK). Assay end points were normalised to 0% (DMSO only) and fitted to a semilog plot using at least n = 3 technical replicates (n = 6 for DMSO control and paclitaxel control) and N = 3 independent replicates. The curve fit was performed using the GraphPad Prism software and the standard Hill equation.
as §2

[2] = CellTiter-Blue cell viability assay, HEK-293 (24 h); format: cell-based, human; details: human, HEK-293 cells, CellTiter-Blue, 24 h incubation, 10 μM test compound, standardised to DMSO control
Protocol: as §1, §3, §2

HEK-293 cells = assay: as above; format: cell-based, human; details: Homo sapiens, HEK293; 24 h incubation time
Protocol: as §1, §3, §2

Compound | IC50 (MCF-7 cells) | IC50 [1] | GI50 (MDA-MB-231 cells) | Inhibitory activity in colony forming assay, HCC1954 (HCC1954 cells) | Activity within the Bcl3-binding assays (Bcl3-p50) | % Clonogenicity (MCF-7, 10 μM) (MCF-7 cells) | viability at 10 µM (MDA-MB-231 cells) | viability at 24 h, 10 µM [2] | GI50 (HEK-293 cells)
CCOc1cc(C2NC(=O)NC(C)=C2C(=O)OCc2ccc3c(c2)OCO3)ccc1O (stereo not drawn) [Compound 1] |  |  |  | potent inhibitory activity | not active |  |  |  | 
CC1=C(C(=O)OCc2ccccc2)C(c2ccccc2F)NC(=O)N1 (stereo not drawn) [Compound 5m, Benzyl 4‐(2‐Fluorophenyl)‐6‐Methyl‐2‐Oxo‐1,2,3,4‐Tetrahydropyrimidine‐5‐Carboxylate] | 15.7 µM | 16.6 µM | 84.9 µM |  |  | 99.95 ± 2.40% | 95.2 ± 3.72% | 97.7 ± 3.27% | 20.4 µM
CC1=C(C(=O)OCc2ccccc2)C(c2ccc(C)cc2F)NC(=O)N1 (stereo not drawn) [Compound 5n, Benzyl 4‐(2‐Fluoro‐4‐Methylphenyl)‐6‐Methyl‐2‐Oxo‐1,2,3,4‐Tetrahydropyrimidine‐5‐Carboxylate] | 7.17 µM | 74.6 µM | 86.7 µM |  |  | 90.54 ± 0.81% | 97.3 ± 1.3% | 98.7 ± 2.49% | 39.6 µM

Continued, in another order:

IC50 (MCF-7 cells) | IC50 [1] | GI50 (MDA-MB-231 cells) | Compound | Inhibitory activity in colony forming assay, HCC1954 (HCC1954 cells) | Activity within the Bcl3-binding assays (Bcl3-p50) | % Clonogenicity (MCF-7, 10 μM) (MCF-7 cells) | viability at 10 µM (MDA-MB-231 cells) | viability at 24 h, 10 µM [2] | GI50 (HEK-293 cells)
2.46 µM | 20.2 µM | 77.2 µM | COc1ccc(C2NC(=O)NC(C)=C2C(=O)OCc2ccc3c(c2)OCO3)cc1 (stereo not drawn) [Compound 5k, Benzo[d] [1,3] Dioxol‐5‐ylmethyl 4‐(4‐Methoxyphenyl)‐6‐Methyl‐2‐Oxo‐1,2,3,4‐Tetrahydropyrimidine‐5‐Carboxylate] |  |  | 99.85 ± 3.27% | 98.7 ± 2.6% | 98.6 ± 1.31% | 63 µM
0.89 µM | 22.9 µM | 86.6 µM | CC1=C(C(=O)OCc2ccccc2)C(c2ccc(F)cc2)NC(=O)N1 (stereo not drawn) [Compound 5l, Benzyl 4‐(4‐Fluorophenyl)‐6‐Methyl‐2‐Oxo‐1,2,3,4‐Tetrahydropyrimidine‐5‐Carboxylate] |  |  | 82.62 ± 2.93% | 100 ± 2.96% | 98 ± 1.89% | 52.9 µM
